Measurements taken from patent publication US20230079819A1, “COMPOUNDS AND USES THEREOF” (Foghorn Therapeutics Inc., priority 2019, published 2023).
Read-outs that look alike come from different tables or passages of the source.

Tests used:
BRM = molecular target: T1, BRM (Homo sapiens, UniProt P51531); assay: ATPase catalytic activity of BRM, ADP-Glo in vitro biochemical assay; details: 30 nM BRM, 400 μM ATP
T1 construct: made in house; host or cells: High Five insect cells

BRG-1 = molecular target: T2, BRG-1 (Homo sapiens, UniProt P51532); assay: ATPase catalytic activity of BRG-1, ADP-Glo in vitro biochemical assay; details: 30 nM BRG-1, 400 μM ATP
T2 construct: made in house; host or cells: High Five insect cells

[1] = ATPase catalytic activity, read-out: BRM IP50
[2] = ATPase catalytic activity, read-out: BRG1 IP50
[3] = ATPase catalytic activity, read-out: BRM IP50 (μM)*
[4] = ATPase catalytic activity, read-out: BRG1 IP50 (μM)*

T1 sequence (P51531 whole entry): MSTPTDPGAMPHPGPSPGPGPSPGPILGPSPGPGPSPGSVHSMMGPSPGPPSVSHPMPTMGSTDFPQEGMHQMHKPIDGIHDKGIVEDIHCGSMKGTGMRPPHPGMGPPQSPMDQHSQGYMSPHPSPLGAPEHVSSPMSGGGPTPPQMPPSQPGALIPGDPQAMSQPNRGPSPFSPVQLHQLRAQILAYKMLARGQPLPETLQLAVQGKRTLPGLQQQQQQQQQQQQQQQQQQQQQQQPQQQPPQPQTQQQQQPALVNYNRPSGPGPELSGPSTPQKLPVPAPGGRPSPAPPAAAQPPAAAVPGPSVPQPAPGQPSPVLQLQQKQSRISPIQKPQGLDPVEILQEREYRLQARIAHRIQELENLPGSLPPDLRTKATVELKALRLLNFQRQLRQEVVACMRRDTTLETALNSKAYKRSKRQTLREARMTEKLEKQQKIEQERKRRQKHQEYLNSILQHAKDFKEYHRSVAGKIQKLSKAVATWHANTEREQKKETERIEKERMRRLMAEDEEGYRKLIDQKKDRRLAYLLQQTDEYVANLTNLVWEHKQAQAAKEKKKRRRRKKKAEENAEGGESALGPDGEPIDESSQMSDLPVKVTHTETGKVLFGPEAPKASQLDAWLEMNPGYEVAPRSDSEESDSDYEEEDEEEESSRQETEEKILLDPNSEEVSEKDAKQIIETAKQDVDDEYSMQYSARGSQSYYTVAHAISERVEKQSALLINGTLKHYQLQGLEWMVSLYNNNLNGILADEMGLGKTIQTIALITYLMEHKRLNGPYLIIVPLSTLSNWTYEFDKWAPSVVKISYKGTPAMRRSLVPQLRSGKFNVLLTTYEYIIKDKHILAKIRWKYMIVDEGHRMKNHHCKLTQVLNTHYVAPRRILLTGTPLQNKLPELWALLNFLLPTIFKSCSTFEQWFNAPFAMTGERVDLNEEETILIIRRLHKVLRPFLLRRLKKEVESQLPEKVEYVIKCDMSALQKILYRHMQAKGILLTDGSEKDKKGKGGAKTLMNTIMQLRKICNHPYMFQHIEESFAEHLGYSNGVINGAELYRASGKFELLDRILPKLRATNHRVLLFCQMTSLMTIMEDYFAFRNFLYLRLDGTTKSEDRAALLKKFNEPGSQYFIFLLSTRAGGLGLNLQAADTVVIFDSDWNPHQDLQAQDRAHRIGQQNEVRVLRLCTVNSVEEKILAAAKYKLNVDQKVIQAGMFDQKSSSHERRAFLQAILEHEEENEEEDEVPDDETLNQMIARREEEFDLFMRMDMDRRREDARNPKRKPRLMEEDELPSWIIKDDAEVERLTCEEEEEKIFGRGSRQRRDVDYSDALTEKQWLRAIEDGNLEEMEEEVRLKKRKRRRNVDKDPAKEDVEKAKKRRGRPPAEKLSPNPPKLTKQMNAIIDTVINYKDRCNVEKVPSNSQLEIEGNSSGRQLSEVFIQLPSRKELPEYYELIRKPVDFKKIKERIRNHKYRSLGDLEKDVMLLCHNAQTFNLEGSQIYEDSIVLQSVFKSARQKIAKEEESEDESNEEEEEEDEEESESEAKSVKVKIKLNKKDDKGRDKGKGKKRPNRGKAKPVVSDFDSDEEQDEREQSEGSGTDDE
T2 sequence (P51532 whole entry): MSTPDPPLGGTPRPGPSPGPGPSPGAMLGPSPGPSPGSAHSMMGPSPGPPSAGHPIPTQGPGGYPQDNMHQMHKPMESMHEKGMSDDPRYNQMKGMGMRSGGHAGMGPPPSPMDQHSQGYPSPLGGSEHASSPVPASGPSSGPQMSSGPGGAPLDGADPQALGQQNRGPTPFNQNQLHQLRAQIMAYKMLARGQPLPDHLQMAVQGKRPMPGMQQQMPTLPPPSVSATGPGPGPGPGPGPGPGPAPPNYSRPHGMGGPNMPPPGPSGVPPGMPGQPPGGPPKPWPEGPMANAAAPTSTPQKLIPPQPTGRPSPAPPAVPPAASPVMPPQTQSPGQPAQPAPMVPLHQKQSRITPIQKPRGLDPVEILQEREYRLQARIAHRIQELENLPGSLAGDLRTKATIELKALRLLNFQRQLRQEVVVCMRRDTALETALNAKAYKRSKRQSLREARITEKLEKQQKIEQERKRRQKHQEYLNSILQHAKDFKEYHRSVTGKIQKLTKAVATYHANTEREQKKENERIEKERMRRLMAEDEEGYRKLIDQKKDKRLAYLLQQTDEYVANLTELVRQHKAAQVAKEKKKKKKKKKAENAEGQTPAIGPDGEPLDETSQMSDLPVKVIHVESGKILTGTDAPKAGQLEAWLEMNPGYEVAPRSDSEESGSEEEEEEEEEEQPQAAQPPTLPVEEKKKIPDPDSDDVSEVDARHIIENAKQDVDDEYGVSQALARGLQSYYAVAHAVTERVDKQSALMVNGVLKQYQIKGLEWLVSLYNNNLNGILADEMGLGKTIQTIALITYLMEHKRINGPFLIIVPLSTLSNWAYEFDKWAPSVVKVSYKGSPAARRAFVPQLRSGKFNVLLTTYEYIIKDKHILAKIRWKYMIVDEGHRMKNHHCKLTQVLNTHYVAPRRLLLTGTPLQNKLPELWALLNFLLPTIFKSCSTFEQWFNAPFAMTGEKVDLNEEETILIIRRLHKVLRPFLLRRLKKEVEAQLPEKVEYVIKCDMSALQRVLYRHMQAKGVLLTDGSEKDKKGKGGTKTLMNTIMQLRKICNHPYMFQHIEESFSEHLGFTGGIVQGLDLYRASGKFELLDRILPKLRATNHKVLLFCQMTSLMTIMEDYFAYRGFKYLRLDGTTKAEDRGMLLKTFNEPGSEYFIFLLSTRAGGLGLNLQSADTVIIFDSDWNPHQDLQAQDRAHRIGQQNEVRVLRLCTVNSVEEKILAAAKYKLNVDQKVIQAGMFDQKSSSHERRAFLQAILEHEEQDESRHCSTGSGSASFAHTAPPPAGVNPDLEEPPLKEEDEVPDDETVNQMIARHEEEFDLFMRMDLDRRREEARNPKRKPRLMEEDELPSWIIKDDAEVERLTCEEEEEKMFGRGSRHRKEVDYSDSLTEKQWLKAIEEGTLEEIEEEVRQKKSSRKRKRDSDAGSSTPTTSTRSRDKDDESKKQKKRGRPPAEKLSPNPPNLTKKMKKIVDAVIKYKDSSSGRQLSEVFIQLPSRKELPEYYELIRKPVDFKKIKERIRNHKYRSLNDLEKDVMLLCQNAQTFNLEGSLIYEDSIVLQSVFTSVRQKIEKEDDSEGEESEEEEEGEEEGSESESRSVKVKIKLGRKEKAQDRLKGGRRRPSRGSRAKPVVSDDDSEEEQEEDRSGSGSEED

Row | IC50 (BRM; [1]) | IC50 (BRG-1; [2]) | IC50 (BRM; [3]) | IC50 (BRG-1; [4]) | SMILES | further results
1 | < 0.01 µM | < 0.01 µM | – | – | C[C@@H]1CN(c2cccc(-c3csc(NC(=O)CNC(=O)c4ccn(C5(C#N)CCC5)c4)n3)n2)C[C@H](C)O1 [Compound 731] | –
2 | > 0.1 µM | > 0.1 µM | – | – | C[C@@H]1CN(c2cccc(-c3csc(NC(=O)CNC(=O)c4ccn([C@@]5(C)CC5(F)F)c4)n3)n2)C[C@H](C)O1 [Compound 621] | –
3 | > 0.01 µM | > 0.01 µM | – | – | CC(C)(C)n1ccc(C(=O)NCC(=O)Nc2nc(-c3cccc(N4CCn5ncnc5C4)n3)cs2)c1 [Compound 692] | –
4 | > 0.01 µM | > 0.01 µM | – | – | COC[C@H](NC(=O)c1ccn(S(C)(=O)=O)c1)C(=O)Nc1nc(-c2cncc(N3C[C@@H](C)O[C@@H](C)C3)n2)cs1 [Compound 707] | –
5 | > 0.1 µM | > 0.1 µM | – | – | CC(C)(C)n1ccc(C(=O)NCC(=O)Nc2nc(-c3cccc(N4CC(N5CCS(=O)(=O)CC5)C4)n3)cs2)c1 [Compound 629] | –
6 | < 0.01 µM | < 0.01 µM | – | – | CS(=O)(=O)n1ccc(C(=O)NCC(=O)Nc2nc(-c3cccc(N4CC[C@H]5OCC[C@@H]5C4)n3)cs2)c1 [Compound 764] | –
7 | < 0.01 µM | < 0.01 µM | – | – | C[C@@H]1CN(c2cccc(-c3csc(NC(=O)CNC(=O)c4ccn(C5(C(F)F)CC5)c4)n3)n2)C[C@H](C)O1 [Compound 737] | –
8 | > 0.01 µM | > 0.1 µM | – | – | CN(C)[C@@H]1CCN(c2cccc(-c3csc(NC(=O)CNC(=O)c4ccn(C(C)(C)C)c4)n3)n2)C1 [Compound 670] | –

More lines, now with the values behind:

Row | SMILES | IC50 (BRM; [1]) | IC50 (BRG-1; [2]) | IC50 (BRM; [3]) | IC50 (BRG-1; [4]) | further results
9 | COC[C@H](NC(=O)c1ccn(S(C)(=O)=O)c1)C(=O)Nc1nc(-c2cccc(C3=CC(C)(C)OC(C)(C)C3)c2)cs1 [Compound 354] | – | – | > 0.01 µM | > 0.01 µM | –
10 | CS(=O)(=O)n1ccc(C(=O)NCC(=O)Nc2nc(-c3cccc([C@@H]4CC4(F)F)c3)cs2)c1 [Compound 575] | > 0.01 µM | > 0.01 µM | – | – | –
11 | COC[C@H](NC(=O)c1ccn(S(C)(=O)=O)c1)C(=O)Nc1nc(-c2cccc(-c3cnn(C)n3)c2)cs1 [Compound 352] | – | – | < 0.01 µM | < 0.01 µM | –
12 | CS(=O)(=O)n1ccc(C(=O)NCC(=O)Nc2nc(-c3cccc(C4=CCCOC4)c3)cs2)c1 [Compound 396, N-[2-[[4-[3-(3,6-dihydro-2H-pyran-5-yl)phenyl]thiazol-2-yl]amino]-2-oxo-ethyl]-1-methylsulfonyl-pyrrole-3-carboxamide] | < 0.01 µM | > 0.01 µM | – | – | –
13 | N#CC1(n2ccc(C(=O)NCC(=O)Nc3nc(-c4cccc(OC(F)(F)F)n4)cs3)c2)CC1 [Compound 496] | > 0.1 µM | > 0.1 µM | – | – | –
14 | CS(=O)(=O)n1ccc(C(=O)NCC(=O)Nc2nc(-c3cccc(N4CC[C@@H](N)C(F)(F)C4)c3)cs2)c1 [Compound 558] | < 0.01 µM | < 0.01 µM | – | – | –
15 | COC[C@H](NC(=O)c1cn(C(C)(C)C#N)cn1)C(=O)Nc1nc(-c2ccc3ccn(C)c(=O)c3c2)cs1 [Compound 802] | – | – | – | – | IC50 (BRM; read-out: BRM IP50): > 0.01 µM; IC50 (BRG-1; read-out: BRG1 IP50): > 0.01 µM
16 | C[C@@H]1CN(c2ccc(F)c(-c3csc(NC(=O)CNC(=O)c4ccn(S(C)(=O)=O)c4)n3)c2)C[C@H](C)O1 [Compound 297] | – | – | > 0.01 µM | > 0.1 µM | –
17 | Cn1cnc(-c2cccc(-c3csc(NC(=O)CNC(=O)c4ccn(S(C)(=O)=O)c4)n3)c2)c1 [Compound 18, N-(2-((4-(3-(1-methyl-1H-imidazol-4-yl)phenyl)thiazol-2-yl)amino)-2-oxoethyl)-1-(methylsulfonyl)-1H-pyrrole-3-carboxamide] | – | – | > 0.01 µM | > 0.01 µM | –
18 | CC(C)(C)n1ccc(C(=O)NCC(=O)Nc2nc(-c3cccc(C#N)c3)cs2)n1 [Compound 36, 1-(tert-butyl)-N-(2-((4-(3-cyanophenyl)thiazol-2-yl)amino)-2-oxoethyl)-1H-pyrazole-3-carboxamide] | – | – | > 0.1 µM | > 0.1 µM | –
19 | N#CC1(n2ccc(C(=O)NCC(=O)Nc3nc(-c4cccc(N5CCC5)c4)cs3)n2)CC1 [Compound 814] | – | – | – | – | IC50 (BRM; read-out: BRM IP50): > 0.01 µM; IC50 (BRG-1; read-out: BRG1 IP50): > 0.1 µM
20 | N#CC1(n2ccc(C(=O)NCC(=O)Nc3nc(-c4cccc(OC(F)F)n4)cs3)c2)CC1 [Compound 522] | > 0.1 µM | > 0.1 µM | – | – | –
21 | COC1CCN(c2cccc(-c3csc(NC(=O)CNC(=O)c4ccn(S(C)(=O)=O)c4)n3)c2)CC1 [Compound 95, N-[2-[[4-[3-(4-methoxy-1-piperidyl)phenyl]thiazol-2-yl]amino]-2-oxo-ethyl]-1-methylsulfonyl-pyrrole-3-carboxamide] | – | – | > 0.01 µM | > 0.01 µM | –
22 | CS(=O)(=O)n1ccc(C(=O)NCC(=O)Nc2nc(-c3cccc(C4CCN(CC(F)(F)F)CC4)c3)cs2)c1 [Compound 114, 1-(methylsulfonyl)-N-(2-oxo-2-((4-(3-(1-(2,2,2-trifluoroethyl)piperidin-4-yl)phenyl)thiazol-2-yl)amino)ethyl)-1H-pyrrole-3-carboxamide] | – | – | > 0.1 µM | > 0.1 µM | –
23 | CS(=O)(=O)n1ccc(C(=O)NCC(=O)Nc2nc(-c3cccc(N4CCC(C(F)F)CC4)c3)cs2)c1 [Compound 543] | > 0.01 µM | > 0.01 µM | – | – | –
24 | CNC(=O)CN(C)c1cc(-c2cccc(-c3csc(NC(=O)CNC(=O)c4ccn(S(C)(=O)=O)c4)n3)c2)ccn1 [Compound 16, N-(2-((4-(3-(2-(methyl(2-(methylamino)-2-oxoethyl)amino)pyridin-4-yl)phenyl)thiazol-2-yl)amino)-2-oxoethyl)-1-(methylsulfonyl)-1H-pyrrole-3-carboxamide] | – | – | < 0.01 µM | < 0.01 µM | –
25 | CC1Cc2ccc(-c3csc(NC(=O)CNC(=O)c4ccn(S(C)(=O)=O)c4)n3)cc2O1 (stereo not shown) [Compound 249] | – | – | > 0.01 µM | > 0.01 µM | –
26 | COC[C@H](NC(=O)c1ccn(S(C)(=O)=O)c1)C(=O)Nc1nc(-c2cccc(N3CCC3)c2)c(F)s1 [Compound 461] | > 0.1 µM | > 0.1 µM | – | – | –
27 | CN1CCC(OCc2cccc(-c3csc(NC(=O)CNC(=O)c4ccn(C(C)(C)C)c4)n3)c2)C(F)(F)C1 (stereo not shown) [Compound 128, 1-(tert-butyl)-N-(2-((4-(3-(((3,3-difluoro-1-methylpiperidin-4-yl)oxy)methyl)phenyl)thiazol-2-yl)amino)-2-oxoethyl)-1H-pyrrole-3-carboxamide] | – | – | > 0.1 µM | > 0.1 µM | –
28 | C[C@@H]1CN(c2cccc(-c3csc(NC(=O)CNC(=O)c4ccn(S(=O)(=O)N(C)C)c4)n3)c2)C[C@H](C)O1 [Compound 221] | – | – | > 0.01 µM | > 0.01 µM | –
29 | CN1CCOc2ccc(-c3csc(NC(=O)CNC(=O)c4ccn(C5(C#N)CC5)n4)n3)cc21 [Compound 811] | – | – | – | – | IC50 (BRM; read-out: BRM IP50): > 0.01 µM; IC50 (BRG-1; read-out: BRG1 IP50): > 0.1 µM
30 | CS(=O)(=O)n1ccc(C(=O)NCC(=O)Nc2nc(-c3cccc(OC4CCCOC4)c3)cs2)c1 (stereo not shown) [Compound 274] | – | – | > 0.01 µM | > 0.01 µM | –
31 | CS(=O)(=O)n1ccc(C(=O)NCC(=O)Nc2nc(-c3cccc(CO[C@H]4CC[C@H](O)CC4)c3)cs2)c1 [Compound 105, N-(2-((4-(3-((((1R,4R)-4-hydroxycyclohexyl)oxy)methyl)phenyl)thiazol-2-yl)amino)-2-oxoethyl)-1-(methylsulfonyl)-1H-pyrrole-3-carboxamide] | – | – | > 0.01 µM | < 0.01 µM | –
32 | CS(=O)(=O)n1ccc(C(=O)NCC(=O)Nc2nc(-c3cccc(N4CCC(F)CC4)n3)cs2)c1 [Compound 339] | – | – | > 0.01 µM | > 0.01 µM | –
